In one test the target is T1, LOK (Homo sapiens, UniProt O94804).
T1 construct: made in house; host or cells: E. coli BL21-derived host (T7 phage) or HEK-293
In words: Kinase-tagged phage competition binding assay (qPCR), 382-kinase library. Background: Real-time PCR tracks product formation cycle by cycle.

In a further test the target is T2, RIOK2 (Homo sapiens, UniProt Q9BVS4).
T2 construct: made in house; host or cells: E. coli BL21-derived host (T7 phage) or HEK-293
The description is as above.

The next test has as its target T3, YSK4 (Homo sapiens, UniProt Q56UN5).
T3 construct: made in house; host or cells: E. coli BL21-derived host (T7 phage) or HEK-293
T3 sequence (Q56UN5 1-1328): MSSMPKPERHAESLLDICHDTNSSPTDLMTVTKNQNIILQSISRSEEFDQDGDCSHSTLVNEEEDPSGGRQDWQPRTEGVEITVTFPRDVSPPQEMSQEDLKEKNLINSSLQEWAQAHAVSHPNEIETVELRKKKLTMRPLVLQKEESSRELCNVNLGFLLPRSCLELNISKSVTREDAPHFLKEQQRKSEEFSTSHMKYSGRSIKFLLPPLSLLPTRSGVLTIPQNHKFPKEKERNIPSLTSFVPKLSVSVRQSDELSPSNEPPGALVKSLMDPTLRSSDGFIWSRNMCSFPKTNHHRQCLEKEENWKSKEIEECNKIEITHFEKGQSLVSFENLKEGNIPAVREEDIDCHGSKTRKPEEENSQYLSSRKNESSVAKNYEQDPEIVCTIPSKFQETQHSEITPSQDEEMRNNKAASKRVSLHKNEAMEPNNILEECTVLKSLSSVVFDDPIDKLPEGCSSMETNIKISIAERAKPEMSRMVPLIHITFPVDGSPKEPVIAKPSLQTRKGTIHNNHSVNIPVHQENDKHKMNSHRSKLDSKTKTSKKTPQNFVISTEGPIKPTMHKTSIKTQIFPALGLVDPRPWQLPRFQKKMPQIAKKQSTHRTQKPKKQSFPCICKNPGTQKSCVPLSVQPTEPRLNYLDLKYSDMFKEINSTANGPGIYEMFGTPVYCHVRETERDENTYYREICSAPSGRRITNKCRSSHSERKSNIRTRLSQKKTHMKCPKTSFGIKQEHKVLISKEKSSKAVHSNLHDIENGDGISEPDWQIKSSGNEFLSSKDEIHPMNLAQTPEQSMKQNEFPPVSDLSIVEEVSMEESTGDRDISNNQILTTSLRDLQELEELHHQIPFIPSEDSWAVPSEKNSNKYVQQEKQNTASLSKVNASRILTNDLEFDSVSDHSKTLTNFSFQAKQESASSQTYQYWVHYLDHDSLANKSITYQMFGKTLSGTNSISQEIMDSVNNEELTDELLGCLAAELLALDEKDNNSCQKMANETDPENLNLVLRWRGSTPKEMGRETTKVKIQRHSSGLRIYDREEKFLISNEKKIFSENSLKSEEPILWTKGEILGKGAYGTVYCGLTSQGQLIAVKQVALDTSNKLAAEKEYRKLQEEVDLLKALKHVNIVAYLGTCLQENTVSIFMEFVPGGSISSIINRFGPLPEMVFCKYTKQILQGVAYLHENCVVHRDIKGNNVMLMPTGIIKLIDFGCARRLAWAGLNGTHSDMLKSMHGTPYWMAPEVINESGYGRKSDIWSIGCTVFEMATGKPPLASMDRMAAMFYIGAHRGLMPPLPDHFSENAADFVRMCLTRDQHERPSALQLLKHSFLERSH
The description is as above.

The target of the next test is T4, PIK3CB (Homo sapiens, UniProt P42338).
T4 construct: made in house; host or cells: E. coli BL21-derived host (T7 phage) or HEK-293
T4 sequence (P42338 whole entry): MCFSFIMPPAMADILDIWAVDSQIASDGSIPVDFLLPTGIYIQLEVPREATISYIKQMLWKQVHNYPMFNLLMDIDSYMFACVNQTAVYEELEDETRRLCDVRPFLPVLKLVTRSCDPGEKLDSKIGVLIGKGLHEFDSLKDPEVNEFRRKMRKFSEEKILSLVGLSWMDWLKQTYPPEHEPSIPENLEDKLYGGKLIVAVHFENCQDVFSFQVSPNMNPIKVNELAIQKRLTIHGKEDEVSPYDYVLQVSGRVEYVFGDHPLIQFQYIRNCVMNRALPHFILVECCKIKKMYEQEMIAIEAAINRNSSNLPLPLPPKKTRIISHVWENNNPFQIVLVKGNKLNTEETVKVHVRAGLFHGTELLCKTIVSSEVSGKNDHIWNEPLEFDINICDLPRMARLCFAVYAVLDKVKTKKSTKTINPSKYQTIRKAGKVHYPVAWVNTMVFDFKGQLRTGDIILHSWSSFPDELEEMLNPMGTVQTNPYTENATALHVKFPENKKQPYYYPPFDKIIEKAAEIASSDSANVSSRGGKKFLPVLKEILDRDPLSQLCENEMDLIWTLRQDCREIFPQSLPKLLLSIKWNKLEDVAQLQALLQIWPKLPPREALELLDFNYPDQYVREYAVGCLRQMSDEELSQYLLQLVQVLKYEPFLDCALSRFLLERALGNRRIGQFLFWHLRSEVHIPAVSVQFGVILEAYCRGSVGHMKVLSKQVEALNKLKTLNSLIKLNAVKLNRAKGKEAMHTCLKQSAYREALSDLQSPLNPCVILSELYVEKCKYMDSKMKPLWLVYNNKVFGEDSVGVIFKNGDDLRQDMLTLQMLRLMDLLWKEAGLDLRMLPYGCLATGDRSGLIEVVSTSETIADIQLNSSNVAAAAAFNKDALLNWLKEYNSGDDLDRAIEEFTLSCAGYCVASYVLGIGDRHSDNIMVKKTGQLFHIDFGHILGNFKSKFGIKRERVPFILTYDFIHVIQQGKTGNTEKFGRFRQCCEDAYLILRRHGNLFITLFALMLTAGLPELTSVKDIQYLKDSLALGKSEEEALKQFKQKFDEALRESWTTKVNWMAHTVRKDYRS
The test is described as above.

In test [1] the target is T5, PAK1 (Homo sapiens, UniProt Q13153).
T5 construct: made in house; host or cells: E. coli BL21-derived host (T7 phage) or HEK-293
T5 sequence (Q13153 whole entry): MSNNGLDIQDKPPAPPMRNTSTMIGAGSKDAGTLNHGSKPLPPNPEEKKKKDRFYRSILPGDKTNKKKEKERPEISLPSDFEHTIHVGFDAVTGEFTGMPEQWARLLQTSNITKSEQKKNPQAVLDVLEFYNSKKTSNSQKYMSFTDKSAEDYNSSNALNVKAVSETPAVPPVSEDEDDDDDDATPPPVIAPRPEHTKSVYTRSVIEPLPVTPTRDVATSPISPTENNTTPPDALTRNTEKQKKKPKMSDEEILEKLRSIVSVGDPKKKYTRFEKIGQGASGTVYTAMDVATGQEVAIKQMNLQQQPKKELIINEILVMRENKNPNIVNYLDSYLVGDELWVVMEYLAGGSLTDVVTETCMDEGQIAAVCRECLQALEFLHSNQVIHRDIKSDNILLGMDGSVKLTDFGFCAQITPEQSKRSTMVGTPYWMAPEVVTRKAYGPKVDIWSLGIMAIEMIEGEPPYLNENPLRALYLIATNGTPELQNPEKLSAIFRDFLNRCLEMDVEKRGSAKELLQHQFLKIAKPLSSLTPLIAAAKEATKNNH
The description is as above.

For another test, the target named is T6, TESK1 (Homo sapiens, UniProt Q15569).
T6 construct: made in house; host or cells: E. coli BL21-derived host (T7 phage) or HEK-293
T6 sequence (Q15569 whole entry): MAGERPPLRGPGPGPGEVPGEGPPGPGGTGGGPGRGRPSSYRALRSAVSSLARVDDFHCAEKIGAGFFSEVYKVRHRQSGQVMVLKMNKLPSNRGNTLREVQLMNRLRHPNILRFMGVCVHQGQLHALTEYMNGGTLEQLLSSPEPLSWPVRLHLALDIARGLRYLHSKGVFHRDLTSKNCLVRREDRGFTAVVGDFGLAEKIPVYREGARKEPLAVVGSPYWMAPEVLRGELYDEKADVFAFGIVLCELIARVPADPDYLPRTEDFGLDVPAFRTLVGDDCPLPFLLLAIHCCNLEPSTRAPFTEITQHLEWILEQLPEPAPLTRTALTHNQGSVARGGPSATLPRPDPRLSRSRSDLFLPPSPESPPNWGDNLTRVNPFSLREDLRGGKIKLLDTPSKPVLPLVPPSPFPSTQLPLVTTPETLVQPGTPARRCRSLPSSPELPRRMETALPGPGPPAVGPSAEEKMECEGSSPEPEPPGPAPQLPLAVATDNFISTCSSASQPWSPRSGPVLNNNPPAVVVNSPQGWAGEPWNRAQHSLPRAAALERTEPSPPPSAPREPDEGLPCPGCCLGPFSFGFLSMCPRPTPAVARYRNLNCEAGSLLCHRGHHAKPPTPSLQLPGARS
The description is as above.

Test [2] has as its target T5, PAK1. In words: Commercial kinase activity assay (Invitrogen, fluorescence). In kind it is biochemical. The following applies: 10 μM test compound.
For another test, the target named is T7, PI4KA (PI4K alpha) (Homo sapiens, UniProt P42356).
T7 construct: purchased Invitrogen
Kind of test: Commercial kinase activity assay (Invitrogen, ADP TR-FRET). In kind it is biochemical. The conditions noted are these: 10 μM test compound. Background: Time-resolved FRET reads energy transfer from a long-lived donor to a nearby acceptor.

Test [3] has as its system murine splenocytes stimulated with α-CD3 antibody. In words: Cytokine secretion after α-CD3 stimulation. In kind it is cell-based, Balb/C mice. The following applies: Mus musculus, Splenocyte, 24 h. On the procedure:
The ability of test compounds to inhibit cytokine release by murine splenocytes after stimulation with α-CD3 antibody was also investigated.
2×10^6 splenocytes from Balb/C female mice, 8-10 weeks old in 220 μl of complete medium were stimulated with 0.1 μg of hamster anti mouse CD3ε antibody in presence of various concentrations of test compounds. After 24 h of incubation at 37° C., 5% CO2, supernatant were collected and cytokine titers were determined by flow cytometry according manufacturer protocols (MCB United States, Arlington, Mass., USA).
The results are shown in FIG. 1 compared to a DMSO negative control (▾). […].

Test [4] has as its system cardiac allograft rejection. In words: Cardiac allograft transplantation model, treatment day -1 to day 30 (Examples 7 and 8). In kind it is in vivo, mice (C57BL/6 donor, Balb/c recipient). The conditions noted are these: Example 7.
Protocol: Inbreed C57BL/6 H-2b and Balb/c H-2d female mice, 8-10 weeks old, 20-25 g, were used as donor and recipient, respectively. Heterotopic heart transplantation was performed by implanting the donor heart on the neck of recipients using conventional microsurgery techniques. Graft beating was checked daily by inspection and palpation. Cessation of beating indicated graft rejection, which was confirmed by histological examination. Housing and all experimental animal procedures were approved by the Institutional Animal Care and Research Advisory Committee of the KU Leuven.
Test [5] deals with Peripheral blood mononuclear cells (PBMCs) mixed with mitomycin C treated RPMI1788 cells. In words: Mixed lymphocyte reaction (MLR) assay, 3H-thymidine uptake.
Description: In the MLR assay PBMCs from two individuals are mixed together in tissue culture for several days. […] In the one-way MLR test, the mononuclear cells from one of the individuals are inactivated (usually by treatment with mitomycin C or irradiation), thereby allowing only the untreated remaining population of mononuclear cells, such as lymphocytes, to proliferate in response to foreign histocompatibility antigens.
The immunosuppressive effect of test compounds was also investigated using MLR assays. Peripheral blood mononuclear cells (PBMCs) were isolated from heparinized blood of healthy donors by density-gradient centrifugation over Lymphoprep. […] RPMI1788 cells were treated with 30 μg/mL mitomycin C for 20 min at 37° C., washed four times with medium, and finally suspended in complete RPMI medium to a density of 0.45×10^6 cells/mL. An amount of 100 μL of each cell suspension was mixed with 20 μL of diluted compound. The mixed cells were cultured at 37° C. for 6 days in 5% CO2. […] Thereafter, the cells were harvested on glass filter paper and the counts per minute (cpm) determined in a liquid scintillation counter.
The mark [6] stands for this setting: 10 μM compound, read-out: % Inhibition of substrate binding.
Setting [7] is: stated for the 8 kinases of Table 1.

These results are taken from US9301961B2, “Autoimmune and inflammatory disorder therapy” (Katholieke Universiteit Leuven, K.U. Leuven R&D, priority 2011, dated 2016).

Molecules are shown by their SMILES. Like-named read-outs stand apart in the source and are kept apart here.

T2 sequence (Q9BVS4 whole entry): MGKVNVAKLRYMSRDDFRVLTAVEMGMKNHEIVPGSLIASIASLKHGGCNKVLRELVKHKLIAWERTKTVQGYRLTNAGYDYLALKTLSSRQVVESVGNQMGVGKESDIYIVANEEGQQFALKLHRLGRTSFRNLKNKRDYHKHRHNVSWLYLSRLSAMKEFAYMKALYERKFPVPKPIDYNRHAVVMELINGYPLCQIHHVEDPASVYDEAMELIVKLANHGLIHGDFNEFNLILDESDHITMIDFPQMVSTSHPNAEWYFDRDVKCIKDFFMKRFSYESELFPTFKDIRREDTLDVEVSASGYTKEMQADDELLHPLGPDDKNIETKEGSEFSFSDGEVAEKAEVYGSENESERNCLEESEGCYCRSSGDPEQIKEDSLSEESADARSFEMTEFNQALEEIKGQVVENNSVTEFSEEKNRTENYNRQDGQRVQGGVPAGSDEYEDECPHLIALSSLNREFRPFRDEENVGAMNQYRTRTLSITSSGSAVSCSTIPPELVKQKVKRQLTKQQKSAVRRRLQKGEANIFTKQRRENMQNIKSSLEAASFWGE
T1 sequence (O94804 whole entry): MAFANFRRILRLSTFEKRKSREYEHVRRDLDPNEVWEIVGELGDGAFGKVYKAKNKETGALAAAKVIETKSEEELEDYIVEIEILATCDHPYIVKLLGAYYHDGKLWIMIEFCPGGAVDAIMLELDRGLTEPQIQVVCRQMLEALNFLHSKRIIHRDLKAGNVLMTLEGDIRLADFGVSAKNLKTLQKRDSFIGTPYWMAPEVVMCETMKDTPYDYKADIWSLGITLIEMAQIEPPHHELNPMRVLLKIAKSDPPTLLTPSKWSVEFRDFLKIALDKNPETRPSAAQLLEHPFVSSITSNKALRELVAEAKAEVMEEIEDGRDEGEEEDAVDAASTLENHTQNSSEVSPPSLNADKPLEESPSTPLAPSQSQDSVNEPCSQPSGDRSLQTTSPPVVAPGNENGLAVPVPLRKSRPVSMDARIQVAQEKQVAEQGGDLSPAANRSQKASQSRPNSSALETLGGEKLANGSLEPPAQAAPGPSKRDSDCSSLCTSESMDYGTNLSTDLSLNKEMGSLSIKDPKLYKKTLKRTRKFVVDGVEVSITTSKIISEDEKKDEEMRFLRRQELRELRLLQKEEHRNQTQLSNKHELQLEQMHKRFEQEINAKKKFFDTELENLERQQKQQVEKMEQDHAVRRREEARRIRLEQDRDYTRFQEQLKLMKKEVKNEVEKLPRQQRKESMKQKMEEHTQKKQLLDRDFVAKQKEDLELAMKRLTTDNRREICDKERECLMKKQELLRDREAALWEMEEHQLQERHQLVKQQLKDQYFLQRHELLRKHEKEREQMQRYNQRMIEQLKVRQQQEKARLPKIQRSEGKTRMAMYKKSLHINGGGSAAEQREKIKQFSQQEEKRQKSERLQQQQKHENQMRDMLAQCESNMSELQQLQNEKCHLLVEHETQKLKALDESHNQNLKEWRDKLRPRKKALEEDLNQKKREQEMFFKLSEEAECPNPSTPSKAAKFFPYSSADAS

By inhibition is commonly meant the change of the read-out against control, counted positive when it falls. The IC50 is the midpoint of a concentration-inhibition curve. For `Nc1nc(N2CCN(C(=O)COc3ccc(Cl)cc3)CC2)c2nc(-c3cccnc3)sc2n1` [formula (1), 5-amino-7-[4-(4-chlorophenoxyacetyl)piperazin-1-yl]-2-(pyridin-3-yl)thiazolo[5,4-d]pyrimidine], the inhibition at 10 µM at LOK (setting [6]) was found to be 100%; at RIOK2 (setting [6]), 94%; at YSK4 (setting [6]), 79%; on PIK3CB (setting [6]), 56%; on PAK1 [1] (setting [6]), 54%; on TESK1 (setting [6]), 51%. The IC50 at LOK (setting [7]), at RIOK2 (setting [7]), at YSK4 (setting [7]), at PIK3CB (setting [7]), on PAK1 [1] (setting [7]) and at TESK1 (setting [7]) was below 10000 nM each time. Besides, the IC50 in test [3] (read-out: IC50 for inhibition of IFNγ release) was 204 nM; in test [3] (read-out: IC50 for inhibition of IL2 release), 76 nM; in test [5] (RPMI-1788, 144 h, read-out: IC50 MLR, 6 days culture), below 50 nM; in [5] (read-out: IC50 MLR, 6 days culture) it was 30 nM. The Kinase activity is reported as 115 percentage of control at PAK1 [2] and 99 percentage of control at PI4KA (PI4K alpha). Besides, in test [4] (40 mg/kg daily gavage), the “grafts surviving as long as treatment continued” value is given as 3 out of 4. The “graft function after withdrawal of the treatment” value in test [4] (40 mg/kg daily gavage until day 30) was “continued beating after withdrawal of the treatment (up to 60 days)”.
